In brackets after ≈: the same amount, converted by molar mass. Entries after “also recorded” stand apart in the source; their conditions may differ. Like-named read-outs stand apart in the source and are kept apart here. Positions of bridges follow the written chain, without caps; N, C: chain ends. Non-standard residues stand in square brackets, D forms with d. Residues, ends and D or L forms follow the SMILES beside them. *: point of attachment. Hexanoyl(3R-OH,5-Me) = CC(C)C[C@@H](O)CC(=O)*; dNMeF = CN[C@H](Cc1ccccc1)C(=O)O
Columns and labels:
Staphylococcus aureus [1] = test: survived cell numbers (CFU) of Staphylococcus aureus after drug addition; format: cell-based; settings: 25 μg/ml
Experimental: To CA-Mueller Hinton Broth medium were taken 1.8×10^8 Staphylococcus aureus, and then the foregoing RH2180-5 Peak 5 Substance (25 μg/mL), vancomycin (VM, 5 μg/mL), and gentamicin (GM, 2.5 μg/mL) were added thereinto; and then, survived cell numbers after 15 minutes, 30 minutes, 60 minutes, and 120 minutes were obtained as CFU (colony forming unit/mL).

Streptococcus pyogenes = format: cell-based
[2] = acute toxicity test to a mouse; format: in vivo
Experimental: Further, the RH2180-5 Peak 5 Substance was injected hypodermically to the mouse to study acute toxicity of the RH2180-5 Peak 5 Substance to the mouse by observation one day after the administration.

Candida tropicalis pK233 = format: cell-based
[3] = tested on: Cryptococcus neoformans H99; format: cell-based
Staphylococcus aureus [4] = test: bacteriolytic activity, absorbance at 600 nm (OD600); format: cell-based; settings: concentration five times that of Test Example 1, 37° C., compared with vancomycin and daptomycin, FIG. 11
Experimental: Staphylococcus aureus was diluted in CA-Mueller Hinton Broth medium; and then, the RH2180-5 Peak 5 Substance, vancomycin, and daptomycin were added thereinto with the concentrations thereof being five times as much as those of Test Example 1; and then, the microorganism was cultured at 37° C. By using an absorption spectrometer (manufactured by Shimadzu Corp.), absorbance at 600 nm (OD600) after their addition was followed with passage of time.

[5] = tested on: Smith strain of Staphylococcus aureus; test: mouse Staphylococcus aureus infection model (therapeutic effect); format: in vivo, mouse (ICR female)
Experimental: Smith strain of Staphylococcus aureus was suspended in 7% mucin+0.2 mM ferric ammonium citrate, and 6.2×10^6 (20×LD50) thereof was administered into the peritoneal cavity of 5 mice per group (ICR female of four weeks of age). Each drug was injected hypodermically 2 hours after administration of the bacterium by the method shown below.
Similarly, ED50 of vancomycin to the mouse model used this time was studied. […] Here, ED50 values were obtained by the probit method.

Salmonella enterica = tested on: Salmonella enterica
Source text: (§1) Antibacterial activity of the antibiotic-substance-containing fraction at each fractionation stage from a culture produced from RH2180-5 and that of the antibiotic substance obtained therefrom by separation and purification thereof can be evaluated by MIC. […] For example, it is done with a broth microdilution method based on CLSI (formerly NCCLS: National Committee for Clinical Laboratory Standards).
Antibacterial spectrum of the RH2180-5 Peak 5 Substance to various bacteria including MRSA and VRE was studied. In addition, influence of chemical resistance was also studied. For study of the latter, Staphylococcus aureus and Enterococcus faecalis were selected, wherein measurement of MIC value of each peak substance was made by a broth microdilution method based on CLSI (formerly NCCLS: National Committee for Clinical Laboratory Standards) as to Staphylococcus aureus not showing resistance to a chemical (hereinafter abbreviated as “MSSA 1”) and two kinds of MRSA showing resistance to many chemicals including methicillin (MRSA 3 and MRSA 4; see Table 3 for resistive chemicals) for Staphylococcus aureus; and as to Enterococcus faecalis not showing resistance to a chemical (hereinafter abbreviated as “EF 1”) and showing resistance to vancomycin (hereinafter abbreviated as “VRE”) for Enterococcus faecalis. […]

Staphylococcus aureus [6] = test: silkworm Staphylococcus aureus infection model (therapeutic effect); format: in vivo, silkworm (larva of Bombyx mori); settings: purification stages, Table 2
Source text: In the present invention too, a first screening to narrow down effective strains from several tens of thousands of extraordinary large numbers of strains may be done by any method as far as the antibacterial activity can be evaluated with the said method; and thus, for example, by referring to MIC, test bodies showing the antibacterial activity to Staphylococcus aureus in culture supernatant of each strain may be picked up. This is because strains not showing the antibacterial activity at all are not in the scope of examination. Any method capable of evaluating the antibacterial activity may be used; but a method with which a strain recognized to show, with referring to MIC, the antibacterial activity to Staphylococcus aureus in culture supernatant of various test strains is picked up is preferable. […]
Strains recognized to show the therapeutic effect in the silkworm Staphylococcus aureus infection model are further subjected to various separation and purification treatments wherein the therapeutic effect is evaluated in each operation by using the silkworm Staphylococcus aureus infection model. […]

[7] = tested on: Staphylococcus aureus (MSSA1)
Source text: as §1
Antibacterial spectrum of the RH2180-5 Peak 5 Substance to various bacteria including MRSA and VRE was studied. In addition, influence of chemical resistance was also studied. For study of the latter, Staphylococcus aureus and Enterococcus faecalis were selected, wherein measurement of MIC value of each peak substance was made by a broth microdilution method based on CLSI (formerly NCCLS: National Committee for Clinical Laboratory Standards) as to Staphylococcus aureus not showing resistance to a chemical (hereinafter abbreviated as “MSSA 1”) and two kinds of MRSA showing resistance to many chemicals including methicillin (MRSA 3 and MRSA 4; see Table 3 for resistive chemicals) for Staphylococcus aureus; and as to Enterococcus faecalis not showing resistance to a chemical (hereinafter abbreviated as “EF 1”) and showing resistance to vancomycin (hereinafter abbreviated as “VRE”) for Enterococcus faecalis.
Test microorganisms of Staphylococcus aureus and Enterococcus faecalis, the same as Test Example 1, were selected; and measurement of MIC value of each peak substance was made by a broth microdilution method based on CLSI (formerly NCCLS: National Committee for Clinical Laboratory Standards) as to MSSA 1 and EF 1, and MRSA 3, MRSA 4, and VRE, the same as Test Example 1.
Antibacterial spectrum of the foregoing RH2180-5 Peak 5 Substance to various microorganisms including MRSA and VRE was studied. Each MIC value for the case added with 10% blood serum and for the case not added with the same was measured by a broth microdilution method based on CLSI (formerly NCCLS: National Committee for Clinical Laboratory Standards).

Listeria monocytogenes = format: cell-based

CC[C@H](C)[C@@H]1NC(=O)[C@@H](Cc2c[nH]c3ccccc23)NC(=O)[C@@H](CCC(N)=O)NC(=O)[C@H](CCC(=O)O)NC(=O)[C@@H](CCCNC(=N)N)NC(=O)[C@H](CC(C)C)NC(=O)[C@@H](Cc2ccccc2)N(C)C(=O)CNC(=O)[C@H](CO)NC(=O)[C@@H](CCCNC(=N)N)NC(=O)[C@@H](NC(=O)C[C@H](O)CC(C)C)[C@@H](C)OC(=O)[C@H]([C@@H](C)O)NC1=O [Peak P5] ({Hexanoyl(3R-OH,5-Me)}-T[dR]SG[dNMeF]L[dR]E[dQ][dW]IT; ester 1-C)
CFU/ml of S. aureus (Staphylococcus aureus [1]; 15 minutes, start 1.8 × 10^8): <1 × 10^4 CFU/ml
CFU/ml of S. aureus (Staphylococcus aureus [1]; 30 minutes): <1 × 10^4 CFU/ml
CFU/ml of S. aureus (Staphylococcus aureus [1]; 60 minutes): <1 × 10^4 CFU/ml
CFU/ml of S. aureus (Staphylococcus aureus [1]; 120 minutes): <1 × 10^4 CFU/ml
MIC (Streptococcus pyogenes): 50 µg/mL (≈ 30.9 µM)
acute toxicity to the mouse ([2]; injected hypodermically, up to 50 mg/kg, observation one day after the administration, listed as RH2180-5 Peak 5 Substance): mouse was not killed; also recorded: no toxicity observed
highest dose without toxicity (50 mg/kg) relative to ED50 ([2]; mouse, hypodermic): 80 folds
MIC (Candida tropicalis pK233): >100 µg/mL
MIC [3]: >100 µg/mL
bacteriolytic activity (decrease of absorbance OD600) (Staphylococcus aureus [4]): shows the bacteriolytic activity
survival in the mouse Staphylococcus aureus infection model ([5]; 25 mg/kg hypodermically, no survival with PBS administration, 5 mice per group): survival of totality of mice
ED50 value relative to vancomycin ([5]; mouse Staphylococcus aureus infection model): about one third
ED50 ([5]; mouse, S. aureus Smith 6.2 × 10^6 (20 × LD50) intraperitoneal, drug injected hypodermically 2 hours later, survival one day after, probit method): 0.6 mg/kg
MIC (Salmonella enterica; Table 3, Salmonella enteria): >100 µg/mL
MIC (Salmonella enterica; Table 6, without serum, Salmonella enterica): >100 µg/mL
ED50 (Staphylococcus aureus [6]): 0.3 μg/g-larva
Solubility to solvents (chloroform): Insoluble
Solubility to solvents (water, ethanol, methanol, and acetonitrile): Soluble
MIC ([7]; Table 3, Staphylococcus aureus (MSSA1), resistance-showing chemicals: Non): 5 µg/mL (≈ 3.09 µM)
MIC ([7]; Table 4, MSSA1): 6.3 µg/mL (≈ 3.89 µM)
MIC ([7]; Table 6, with 10% serum, Methicillin susceptible S. aureus MSSA1 (clinical isolate)): 1.5 µg/mL (≈ 0.927 µM)
MIC ([7]; Table 6, without serum, Methicillin susceptible S. aureus MSSA1 (clinical isolate)): 3.1 µg/mL (≈ 1.92 µM)
MIC (Listeria monocytogenes): 6.3 µg/mL (≈ 3.89 µM)

From patent US8754040B2, “Cyclic peptide compound, method for producing same, anti-infective agent, antibiotic-containing fraction, antibiotic, method for producing antibiotic, antibiotic-producing microorganism, and antibiotic produced by same” (priority 2010, dated 2014)
